The source of these data is patent US20240382495A1, “COMBINATIONS OF COPANLISIB WITH ANTI-PD-1 ANTIBODY” (BAYER PHARMA AKTIENGESELLSCHAFT, priority 2023, published 2024).

The subject of assay [1] is CT26 colorectal cancer. In words: Anti-tumor efficacy in syngeneic CT26 colorectal cancer mouse model. It counts as in vivo. The following applies: CT26 (KRASmut, non-MSIhigh) model, monotherapy. How it is done:
(§1) Experimental Methods A20 diffuse large B cell lymphoma and CT26 colorectal cancer cells were maintained in vitro in cell cultural medium supplemented with serum (according to the instructions for each corresponding cell lines) at 37° C. in an atmosphere of 5% CO2 in air. The tumor cells were routinely subcultured twice weekly. The cells in an exponential growth phase were harvested and counted for tumor inoculation. To investigate anti-tumor efficacy and mechanisms of action in vivo, each mouse was inoculated subcutaneously at the right lower flank region with tumor cells (1×10^5-2×10^6 depending on the cell lines) in 0.1 ml of PBS with or without metrigel for tumor development. Before commencement of treatment, all animals were weighed and the tumor volumes were measured using a caliper. […]
(§2) Tumor volumes were measured 2-3 times weekly in two dimensions using a caliper, and the volume was expressed in mm^3 using the formula: V=0.5 a x b2 where a and b are the long and short diameters of the tumor, respectively. Tumor weight was measured at study termination. […]
Therefore, the anti-tumor activity of Compound A and Compound B was assessed in the mouse syngeneic CT26 (KRASmut, non-MSIhig^h) colorectal cancer xenograft model as single agent and in combination. […]

In assay [2] the test system is A20 diffuse large B cell lymphoma. In words: Anti-tumor efficacy in DLBCL syngeneic A20 mouse model. It counts as in vivo. The following applies: monotherapy; Cpd A 14 mg/kg, Cpd B 200 μg/mouse, intravenously; vs vehicle control group. The method, then:
as §1, §2
The anti-tumor activity of Compound A and Compound B was assessed firstly in an immune-checkpoint blocker resistant DLBCL syngeneic A20 xenograft mouse model as single agent and in combination. […] Body weights and tumor size were measured three times per week. […] The tolerability was assessed by body weight change. […]

Assay [3] deals with regulatory T cells (Treg). In words: Analysis of Treg and CD8+ T cells in tumor, spleen and thymus of A20 model. The format is in vivo, mouse. The method, then: Sampling procedures: organ and tumor tissues were quickly removed and weighted 3h post the final dose for FACS, IHC (FFPE), and RNA/pretein expression analysis.
The anti-tumor activity of Compound A and Compound B was assessed firstly in an immune-checkpoint blocker resistant DLBCL syngeneic A20 xenograft mouse model as single agent and in combination. A20 cells were inoculated subcutaneously at the right flank of female BALB/c mice for tumor development. The treatment was started when the average tumor size reached about 116 mm^3. Mice were allocated randomly into experimental groups according to their tumor sizes and being treated from day 12 after tumor cell inoculation. Cpd A was dosed at 14 mg/kg and Cpd B at 200 μg/mouse intravenously with the schedule indicated in FIG. 1 A. Treatment groups were: control antibody (ctrl Ab), vehicle control (vehicle), compound A monotherapy (Cpd. A), Cpd. B monotherapy, 3 combination groups with different dosing schedules. Body weights and tumor size were measured three times per week. Tumor growth curve (FIG. 1B), tumor weight at the end of treatment (FIG. 1C) and tumor response (FIG. 1D) were used as anti-tumor activity endpoints. The tolerability was assessed by body weight change. […]

Where a name gives a salt, the structure may show the parent alone.

As usually defined, the TGI is the reduction of tumour growth relative to the control group. In the case of `COc1c(OCCCN2CCOCC2)ccc2c1N=C(NC(=O)c1cnc(N)nc1)N1CCN=C21` [Cpd A, 2-amino-N-[7-methoxy-8-(3-morpholin-4-ylpropoxy)-2,3-dihydroimid-azo[1,2-c]quinazolin-5-yl]pyrimidine-5-carboxamide dihydrochloride], the TGI in assay [1] is reported as 71%. Besides, the “relative tumor growth inhibition (TGI %)” value in assay [2] amounted to 78%. Further, the “effect on Treg in thymus and spleen” value in assay [3] (A20 model, thymus and spleen) was “minimal or no effects”. In addition, the “effect on Treg population in tumors” value in assay [3] (A20 tumors, Treg among CD4+ T cells) is recorded as “specifically reduce the Treg population in tumors”.
